Experimental data from ChEMBL document CHEMBL3351749, “Synthesis, in vitro antimicrobial and cytotoxic activities of new carbazole derivatives of ursolic acid” (Bioorg Med Chem Lett, 2015).
Converted amounts (≈) assume the structure as drawn.

What was measured:
[1] = Cytotoxicity against human […] cells assessed as cell survival after 48 hrs by MTT assay; assay type: functional, cell-based
[2] = test system: Candida tropicalis; experiment: Antimicrobial activity against Candida tropicalis CGMCC2.3967 after 48 hrs by modified microdilution method; assay type: functional; conditions: CGMCC2.3967, 48 h
[3] = test system: Bacillus subtilis; experiment: Antimicrobial activity against Bacillus subtilis CGMCC1.1162 after 24 hrs by modified microdilution method; assay type: functional; conditions: CGMCC1.1162, 24 h
[4] = test system: Staphylococcus aureus; experiment: Antimicrobial activity against Staphylococcus aureus CGMCC1.1361 after 24 hrs by modified microdilution method; assay type: functional; conditions: CGMCC1.1361, 24 h
[5] = test system: Aspergillus niger; experiment: Antimicrobial activity against Aspergillus niger CGMCC3.316 after 48 hrs by modified microdilution method; assay type: functional; conditions: CGMCC3.316, 48 h
[6] = test system: HepG2; experiment: Cytotoxicity against human HepG2 cells assessed as cell survival after 48 hrs by MTT assay; assay type: functional, cell-based; conditions: HepG2, 48 h
[7] = test system: Pseudomonas fluorescens; experiment: Antimicrobial activity against Pseudomonas fluorescens CGMCC1.1828 after 24 hrs by modified microdilution method; assay type: functional; conditions: CGMCC1.1828, 24 h
[8] = test system: Escherichia coli; experiment: Antimicrobial activity against Escherichia coli CGMCC1.1571 after 24 hrs by modified microdilution method; assay type: functional; conditions: CGMCC1.1571, 24 h
[9] = test system: Candida albicans; experiment: Antimicrobial activity against Candida albicans CGMCC2.2086 after 48 hrs by modified microdilution method; assay type: functional; conditions: CGMCC2.2086, 48 h

Row | SMILES | IC50 [1] [µM] | MIC [2] [mg/L] | MIC [3] [mg/L] | MIC [4] [mg/L] | MIC [5] [mg/L] | IC50 [6] [µM] | MIC [7] [mg/L] | MIC [8] [mg/L] | MIC [9] [mg/L]
1 | C[C@H]1[C@H](C)CC[C@]2(C(=O)O)CC[C@]3(C)C(=CC[C@@H]4[C@@]5(C)Cc6c([nH]c7ccc(Cl)cc67)C(C)(C)[C@@H]5CC[C@]43C)[C@H]12 | 29.9 | > 100 | 31.2 (≈ 55.5 µM) | 31.2 (≈ 55.5 µM) | > 100 | 30.9 | 31.2 (≈ 55.5 µM) | 31.2 (≈ 55.5 µM) | > 100
2 | C[C@H]1[C@H](C)CC[C@]2(C(=O)O)CC[C@]3(C)C(=CC[C@@H]4[C@@]5(C)Cc6c([nH]c7ccc(Br)cc67)C(C)(C)[C@@H]5CC[C@]43C)[C@H]12 | 62.6 | 62.5 (≈ 103 µM) | 31.2 (≈ 51.4 µM) | 62.5 (≈ 103 µM) | 31.2 (≈ 51.4 µM) | 38.4 | 62.5 (≈ 103 µM) | 62.5 (≈ 103 µM) | 62.5 (≈ 103 µM)
3 | Cc1ccc2[nH]c3c(c2c1)C[C@]1(C)[C@H]2CC=C4[C@@H]5[C@@H](C)[C@H](C)CC[C@]5(C(=O)O)CC[C@@]4(C)[C@]2(C)CC[C@H]1C3(C)C | 13.8 | > 100 | 62.5 (≈ 115 µM) | 62.5 (≈ 115 µM) | > 100 | 17 | 62.5 (≈ 115 µM) | 31.2 (≈ 57.6 µM) | > 100
4 | COc1ccc2[nH]c3c(c2c1)C[C@]1(C)[C@H]2CC=C4[C@@H]5[C@@H](C)[C@H](C)CC[C@]5(C(=O)O)CC[C@@]4(C)[C@]2(C)CC[C@H]1C3(C)C | 31.7 | 62.5 (≈ 112 µM) | 31.2 (≈ 55.9 µM) | 31.2 (≈ 55.9 µM) | > 100 | 34.6 | 62.5 (≈ 112 µM) | 31.2 (≈ 55.9 µM) | > 100
5 | COc1cccc2c3c([nH]c12)C(C)(C)[C@@H]1CC[C@]2(C)[C@H](CC=C4[C@@H]5[C@@H](C)[C@H](C)CC[C@]5(C(=O)O)CC[C@]42C)[C@@]1(C)C3 | > 100 | > 100 | 62.5 (≈ 112 µM) | 62.5 (≈ 112 µM) | > 100 | > 100 | 62.5 (≈ 112 µM) | 62.5 (≈ 112 µM) | > 100
6 | CCOc1ccc2[nH]c3c(c2c1)C[C@]1(C)[C@H]2CC=C4[C@@H]5[C@@H](C)[C@H](C)CC[C@]5(C(=O)O)CC[C@@]4(C)[C@]2(C)CC[C@H]1C3(C)C | 24.5 | > 100 | 62.5 (≈ 109 µM) | 62.5 (≈ 109 µM) | > 100 | 33 | 62.5 (≈ 109 µM) | 62.5 (≈ 109 µM) | > 100
7 | COC(=O)[C@]12CC[C@@H](C)[C@H](C)[C@H]1C1=CC[C@@H]3[C@@]4(C)Cc5c([nH]c6ccccc56)C(C)(C)[C@@H]4CC[C@@]3(C)[C@]1(C)CC2 | > 100 | 62.5 (≈ 115 µM) | 31.2 (≈ 57.6 µM) | 15.6 (≈ 28.8 µM) | 62.5 (≈ 115 µM) | > 100 | 62.5 (≈ 115 µM) | 31.2 (≈ 57.6 µM) | 62.5 (≈ 115 µM)
8 | COC(=O)[C@]12CC[C@@H](C)[C@H](C)[C@H]1C1=CC[C@@H]3[C@@]4(C)Cc5c([nH]c6ccc(F)cc56)C(C)(C)[C@@H]4CC[C@@]3(C)[C@]1(C)CC2 | > 100 | 62.5 (≈ 112 µM) | 31.2 (≈ 55.7 µM) | 15.6 (≈ 27.9 µM) | 62.5 (≈ 112 µM) | 97 | 31.2 (≈ 55.7 µM) | 31.2 (≈ 55.7 µM) | 62.5 (≈ 112 µM)
9 | COC(=O)[C@]12CC[C@@H](C)[C@H](C)[C@H]1C1=CC[C@@H]3[C@@]4(C)Cc5c([nH]c6ccc(Cl)cc56)C(C)(C)[C@@H]4CC[C@@]3(C)[C@]1(C)CC2 | > 100 | > 100 | 31.2 (≈ 54.1 µM) | 62.5 (≈ 108 µM) | 62.5 (≈ 108 µM) | > 100 | 62.5 (≈ 108 µM) | > 100 | > 100
10 | COC(=O)[C@]12CC[C@@H](C)[C@H](C)[C@H]1C1=CC[C@@H]3[C@@]4(C)Cc5c([nH]c6ccc(Br)cc56)C(C)(C)[C@@H]4CC[C@@]3(C)[C@]1(C)CC2 | > 100 | > 100 | 62.5 (≈ 101 µM) | 31.2 (≈ 50.3 µM) | > 100 | > 100 | 62.5 (≈ 101 µM) | > 100 | > 100
11 | COC(=O)[C@]12CC[C@@H](C)[C@H](C)[C@H]1C1=CC[C@@H]3[C@@]4(C)Cc5c([nH]c6ccc(C)cc56)C(C)(C)[C@@H]4CC[C@@]3(C)[C@]1(C)CC2 | > 100 | 62.5 (≈ 112 µM) | 31.2 (≈ 56.1 µM) | 31.2 (≈ 56.1 µM) | 31.2 (≈ 56.1 µM) | > 100 | 62.5 (≈ 112 µM) | > 100 | > 100
12 | COC(=O)[C@]12CC[C@@H](C)[C@H](C)[C@H]1C1=CC[C@@H]3[C@@]4(C)Cc5c([nH]c6ccc(OC)cc56)C(C)(C)[C@@H]4CC[C@@]3(C)[C@]1(C)CC2 | > 100 | > 100 | 31.2 (≈ 54.6 µM) | 31.2 (≈ 54.6 µM) | > 100 | > 100 | > 100 | 62.5 (≈ 109 µM) | > 100
13 | COC(=O)[C@]12CC[C@@H](C)[C@H](C)[C@H]1C1=CC[C@@H]3[C@@]4(C)Cc5c([nH]c6c(OC)cccc56)C(C)(C)[C@@H]4CC[C@@]3(C)[C@]1(C)CC2 | > 100 | > 100 | 31.2 (≈ 54.6 µM) | 31.2 (≈ 54.6 µM) | > 100 | > 100 | > 100 | > 100 | > 100
14 | CCOc1ccc2[nH]c3c(c2c1)C[C@]1(C)[C@H]2CC=C4[C@@H]5[C@@H](C)[C@H](C)CC[C@]5(C(=O)OC)CC[C@@]4(C)[C@]2(C)CC[C@H]1C3(C)C | > 100 | > 100 | 31.2 (≈ 53.3 µM) | 31.2 (≈ 53.3 µM) | > 100 | > 100 | 62.5 (≈ 107 µM) | > 100 | > 100
15 | C[C@H]1[C@H](C)CC[C@]2(C(=O)NCCCN(C)C)CC[C@]3(C)C(=CC[C@@H]4[C@@]5(C)Cc6c([nH]c7ccccc67)C(C)(C)[C@@H]5CC[C@]43C)[C@H]12 | 2.12 | 62.5 (≈ 102 µM) | 7.8 (≈ 12.7 µM) | 15.6 (≈ 25.5 µM) | 31.2 (≈ 51 µM) | 2.78 | 31.2 (≈ 51 µM) | 15.6 (≈ 25.5 µM) | 31.2 (≈ 51 µM)
16 | C[C@H]1[C@H](C)CC[C@]2(C(=O)NCCCN(C)C)CC[C@]3(C)C(=CC[C@@H]4[C@@]5(C)Cc6c([nH]c7ccc(F)cc67)C(C)(C)[C@@H]5CC[C@]43C)[C@H]12 | 4.6 | 31.2 (≈ 49.5 µM) | 3.9 (≈ 6.19 µM) | 7.8 (≈ 12.4 µM) | 31.2 (≈ 49.5 µM) | 6.03 | 7.8 (≈ 12.4 µM) | 7.8 (≈ 12.4 µM) | 31.2 (≈ 49.5 µM)
17 | C[C@H]1[C@H](C)CC[C@]2(C(=O)NCCCN(C)C)CC[C@]3(C)C(=CC[C@@H]4[C@@]5(C)Cc6c([nH]c7ccc(Cl)cc67)C(C)(C)[C@@H]5CC[C@]43C)[C@H]12 | 2.78 | 62.5 (≈ 96.7 µM) | 15.6 (≈ 24.1 µM) | 7.8 (≈ 12.1 µM) | 31.2 (≈ 48.3 µM) | 4.02 | 31.2 (≈ 48.3 µM) | 15.6 (≈ 24.1 µM) | 62.5 (≈ 96.7 µM)
18 | C[C@H]1[C@H](C)CC[C@]2(C(=O)NCCCN(C)C)CC[C@]3(C)C(=CC[C@@H]4[C@@]5(C)Cc6c([nH]c7ccc(Br)cc67)C(C)(C)[C@@H]5CC[C@]43C)[C@H]12 | 6.8 | 62.5 (≈ 90.5 µM) | 31.2 (≈ 45.2 µM) | 31.2 (≈ 45.2 µM) | 62.5 (≈ 90.5 µM) | 5.65 | 15.6 (≈ 22.6 µM) | 31.2 (≈ 45.2 µM) | > 100
19 | COc1ccc2[nH]c3c(c2c1)C[C@]1(C)[C@H]2CC=C4[C@@H]5[C@@H](C)[C@H](C)CC[C@]5(C(=O)NCCCN(C)C)CC[C@@]4(C)[C@]2(C)CC[C@H]1C3(C)C | 12.8 | 62.5 (≈ 97.4 µM) | 15.6 (≈ 24.3 µM) | 31.2 (≈ 48.6 µM) | 31.2 (≈ 48.6 µM) | 11.4 | 31.2 (≈ 48.6 µM) | 31.2 (≈ 48.6 µM) | 62.5 (≈ 97.4 µM)
20 | COc1cccc2c3c([nH]c12)C(C)(C)[C@@H]1CC[C@]2(C)[C@H](CC=C4[C@@H]5[C@@H](C)[C@H](C)CC[C@]5(C(=O)NCCCN(C)C)CC[C@]42C)[C@@]1(C)C3 | 36.2 | > 100 | 31.2 (≈ 48.6 µM) | 62.5 (≈ 97.4 µM) | > 100 | 88.8 | 31.2 (≈ 48.6 µM) | 31.2 (≈ 48.6 µM) | > 100
21 | CCOc1ccc2[nH]c3c(c2c1)C[C@]1(C)[C@H]2CC=C4[C@@H]5[C@@H](C)[C@H](C)CC[C@]5(C(=O)NCCCN(C)C)CC[C@@]4(C)[C@]2(C)CC[C@H]1C3(C)C | 4.88 | > 100 | 31.2 (≈ 47.6 µM) | 62.5 (≈ 95.3 µM) | > 100 | 6.25 | 62.5 (≈ 95.3 µM) | 31.2 (≈ 47.6 µM) | > 100
22 | NCC[C@H](O)C(=O)N[C@@H]1C[C@H](N)[C@@H](O[C@H]2O[C@H](CN)[C@@H](O)[C@H](O)[C@H]2O)[C@H](O)[C@H]1O[C@H]1O[C@H](CO)[C@@H](O)[C@H](N)[C@H]1O [AMIKACIN] | – | – | 0.9 (≈ 1.54 µM) | 0.9 (≈ 1.54 µM) | – | – | 0.9 (≈ 1.54 µM) | 1.9 (≈ 3.24 µM) | –
23 | COc1cccc2c1C(=O)c1c(O)c3c(c(O)c1C2=O)C[C@@](O)(C(=O)CO)C[C@@H]3O[C@H]1C[C@H](N)[C@H](O)[C@H](C)O1 [DOXORUBICIN] | 0.62 | – | – | – | – | 0.77 | – | – | –
24 | CC(=O)N1CCN(c2ccc(OCC3COC(Cn4ccnc4)(c4ccc(Cl)cc4Cl)O3)cc2)CC1 (stereo not drawn) [KETOCONAZOLE] | – | 3.9 (≈ 7.34 µM) | – | – | 7.8 (≈ 14.7 µM) | – | – | – | 3.9 (≈ 7.34 µM)
